Test results published in paper PMC9504178 (Viruses, 2022).

Key:
NL09 and NL11 strains = type: cell-based, influenza A virus
NL09 or NL11 = type: cell-based, influenza A virus

Structure (SMILES) | viral reduction in A549 cells (NL09 and NL11 strains) | reduction of viral titers in hPCLSs (NL09 or NL11) | viral reduction in hPCLSs (NL09 or NL11)
CNC(=O)c1cc(Oc2ccc(NC(=O)Nc3ccc(Cl)c(C(F)(F)F)c3)c(F)c2)ccn1 [RG, regorafenib] | ~ 2 log10 | more than 1000 fold | ~ 4 log10
Cn1cc(-c2cc3c(N4CCN(c5ncc([C@@](C)(N)c6ccc(F)cc6)cn5)CC4)ncnn3c2)cn1 [AV, avapritinib] | – | ~ 10 fold | –
CN(C)C/C=C/C(=O)Nc1cc2c(Nc3ccc(F)c(Cl)c3)ncnc2cc1O[C@H]1CCOC1 [AF, afatinib] | – | more than 1000 fold | –
